Where a name gives a salt, the structure may show the parent alone. Read-outs that look alike come from different tables or passages of the source.
What was measured:
human full-length ER-α = target: T1, human full-length ER-α (Homo sapiens, UniProt P03372); test: IL-6 production in U2OS osteosarcoma cells stably transfected with ER-α; format: cell-based
T1 construct: expression vectors for human full-length ER-α or ER-β; expressed in transfected cells
T1 sequence (P03372 1-595): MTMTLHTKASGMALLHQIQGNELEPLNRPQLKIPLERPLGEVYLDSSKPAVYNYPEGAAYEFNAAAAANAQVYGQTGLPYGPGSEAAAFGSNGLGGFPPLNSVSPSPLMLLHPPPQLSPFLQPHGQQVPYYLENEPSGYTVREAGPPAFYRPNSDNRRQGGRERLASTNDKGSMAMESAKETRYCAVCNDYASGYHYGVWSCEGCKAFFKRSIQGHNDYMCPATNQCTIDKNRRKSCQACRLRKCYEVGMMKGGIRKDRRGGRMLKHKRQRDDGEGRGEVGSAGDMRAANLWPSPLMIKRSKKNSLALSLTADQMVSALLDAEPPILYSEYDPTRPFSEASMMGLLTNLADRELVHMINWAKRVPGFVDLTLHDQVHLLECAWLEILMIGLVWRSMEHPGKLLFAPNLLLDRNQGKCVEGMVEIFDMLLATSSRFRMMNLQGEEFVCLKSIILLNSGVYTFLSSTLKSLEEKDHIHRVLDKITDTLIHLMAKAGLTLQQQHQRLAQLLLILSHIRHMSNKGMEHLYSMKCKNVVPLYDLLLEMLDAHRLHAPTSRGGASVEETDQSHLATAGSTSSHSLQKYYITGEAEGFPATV
Description: (§1) Human U2OS osteosarcoma cells (ATCC) were stably transfected with expression vectors for human full-length ER-α or ER-β, respectively, using standard molecular biology techniques. Stable subclones were generated that expressed high levels of ER-α or ER-β mRNA. The expression of ER-α and ER-β was confirmed using RNase protection analysis.
(§2) Cells were plated into 96-well plates at a density of 8000 cells per well in phenol red-free media with charcoal-stripped fetal calf serum. Twenty-four hours later, cells were either treated with vehicle (0.2% DMSO) or test compound at the concentrations indicated (in 0.2% DMSO). Thirty minutes later cells were stimulated with 10 ng/ml IL-1β and 10 ng/ml TNF-α. Twenty-four hours later the media supernatant was analyzed for cytokine production (IL-6) using commercially available ELISA kits following the manufacturer's instructions. Cytokine production in the presence of vehicle (0.2% DMSO) was set to 100%.

U2OS IL-6 ER-Minus = test: IL-6 production in ER-minus U2OS osteosarcoma cells; format: cell-based; conditions: Homo sapiens
human full-length ER-β = target: T2, human full-length ER-β (Homo sapiens, UniProt Q92731); test: IL-6 production in U2OS osteosarcoma cells stably transfected with ER-β; format: cell-based; conditions: for ER subtype specificity (ER-β versus ER-α): comparison of the U2OS IL-6 IC50 values of Table 4
T2 construct: expression vectors for human full-length ER-α or ER-β; expressed in transfected cells
T2 sequence (Q92731 whole entry): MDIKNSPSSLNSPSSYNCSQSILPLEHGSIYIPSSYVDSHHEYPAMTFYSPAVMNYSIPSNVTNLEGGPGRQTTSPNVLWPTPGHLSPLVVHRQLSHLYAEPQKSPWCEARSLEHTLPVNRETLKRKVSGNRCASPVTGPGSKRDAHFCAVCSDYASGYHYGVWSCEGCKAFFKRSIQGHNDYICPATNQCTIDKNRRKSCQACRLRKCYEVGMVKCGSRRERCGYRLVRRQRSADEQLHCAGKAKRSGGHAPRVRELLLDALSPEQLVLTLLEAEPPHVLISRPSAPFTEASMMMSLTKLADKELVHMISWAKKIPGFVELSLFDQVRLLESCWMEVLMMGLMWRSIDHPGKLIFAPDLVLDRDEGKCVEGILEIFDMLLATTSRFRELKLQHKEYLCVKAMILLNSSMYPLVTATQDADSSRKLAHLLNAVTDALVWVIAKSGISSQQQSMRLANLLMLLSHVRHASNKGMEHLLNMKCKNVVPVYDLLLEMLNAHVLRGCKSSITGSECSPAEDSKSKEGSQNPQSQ
Description: as §1, §2

IL-6 = test: Human bone cell co-culture system, IL-6 production; format: cell-based; conditions: for IC50: human bone co-culture system of Example 12
Description: (§3) The generation of osteoblastic cells from normal adult femoral travecular bone from patients without evidence of metabolic bone disease was carried out as previously described (Kung Sutherland et al., Osteoporosis International 5:335-343, 1995; Wong et al., J Bone Miner 5:803-813, 1990). Bone fragments were cleaned of adherent tissue and blood and cultured for 4 weeks in medium containing Ham's F12 supplemented with 28 mM HEPES, pH 7.4, 10% FCS, 1.1 mM CaCl2, 2 mM glutamine, and 1% antibiotic-antimycotic agent. Upon confluency, the cells were harvested and immortalized using a retroviral vector (pLXSN) containing the neomycin resistance gene and the human papillomaviral (HPV18) E6 and E7 concogenes (International Journal of Oncology 6:167-174, 1995). The immortalized osteoblastic cells were selected in medium containing G418 (600 µg/ml).
(§4) The human U937 moncytic cell line (cloned from the commercially available cells by serial dilution) was maintained in RPMI 1640 medium containing 10% FCS and 1% antibiotic-antimycotic agent.
The co-culture system was established as follows. Human osteoblastic cells were plated in 96-well dishes at a density of 5 x 10^3 cells/well. U937 cells in RPMI medium (5 x 10^4 cells/well) were layered over the osteoblasts. The formation of osteoclast-like cells was induced with 100 nM PMA. To determine the effects of compounds or the neutralizing antibodies to IL-6 (Sigma) and GM-CSF (Pharmingen) on the formation of osteoclast-like cells, the compounds or the antibodies were added 30 minutes prior to the addition of PMA. The cultures were stopped after 96 hrs and processed for histochemical or immunohistochemical analyses.

human recombinant ER-α = target: T3, human recombinant ER-α (Homo sapiens, UniProt P03372); test: Solid phase ER binding assay (3H-estradiol competition), ER-α
T3 sequence (P03372 1-595): T1 sequence (P03372 1-595)

human recombinant ER-β = human recombinant ER-β (Homo sapiens, UniProt Q92731); test: Solid phase ER binding assay (3H-estradiol competition), ER-β; conditions: ER binding assay of Example 18
Sequence of human recombinant ER-β (Q92731 whole entry): as above

GM-CSF = test: Human bone cell co-culture system, GM-CSF production; format: cell-based
Description: as §3, §4
The co-culture system was established as follows. Human osteoblastic cells were plated in 96-well dishes at a density of 5 x 10^3 cells/well. U937 cells in RPMI medium (5 x 10^4 cells/well) were layered over the osteoblasts. The formation of osteoclast-like cells was induced with 100 nM PMA. […]

[1] = 28-day uterine bioassay in ovariectomized rats; format: in vivo
[2] = 3-day immature rat uterine bioassay; conditions: s.c. administration
[3] = ER binding assay of Example 18, read-out: ER Binding Assay ER-α (Ki)

CCN(CC)CCOc1ccc(-c2c(-c3ccccc3)c(=O)oc3ccccc23)cc1 ["L-20", reference compound]
IC50 (human full-length ER-α): > 1000 nM | IC50 (U2OS IL-6 ER-Minus): > 1000 nM | IC50 (human full-length ER-β): > 1000 nM | IC50 (IL-6; read-out: IL-6 Activity (IC50)): > 1000 nM | Ki (human recombinant ER-α; [3]): > 10000 nM

CCN(CC)CCOc1ccc(-c2c(-c3ccccc3)c(=O)oc3cc(O)ccc23)cc1 [Compound No. 38]
IC50 (human full-length ER-α): > 1000 nM | IC50 (U2OS IL-6 ER-Minus): > 10000 nM | IC50 (human full-length ER-β): 165 nM | ER subtype specificity (ER-β versus ER-α) (human full-length ER-β): specificity for ER-β over ER-α | Ki (human recombinant ER-β): 1560 nM | IC50 (IL-6; read-out: IL-6 Activity (IC50)): 175 nM | Ki (human recombinant ER-α; [3]): 690 nM

O=c1oc2cc(O)ccc2c(-c2ccc(OCCN3CCCCC3)cc2)c1-c1ccc(Cl)cc1 [compound 16]
IC50 (human full-length ER-α): 325 nM | IC50 (U2OS IL-6 ER-Minus): > 1000 nM | IC50 (human full-length ER-β): 51 nM | ER subtype specificity (ER-β versus ER-α) (human full-length ER-β): specificity for ER-β over ER-α

C[C@]12CC[C@@H]3c4ccc(O)cc4CC[C@H]3[C@@H]1CC[C@@H]2O [Estradiol, 17β-estradiol]
IC50 (U2OS IL-6 ER-Minus): > 1000 nM | production of GM-CSF (GM-CSF; co-culture system): reduced the production of GM-CSF | increase in uterine weight ([1]; ovariectomized rats, 28-day, daily s.c. injection): 550% | increase in uterine weight [2]: 4.5 fold | production of IL-6 (IL-6; co-culture system): suppress the production of IL-6

O=c1oc2cc(O)ccc2c(Cc2ccc(OCCN3CCCCC3)cc2)c1-c1ccccc1 [Compound No. 1, 3-PHENYL-4-[4-(2-{PIPERIDIN-1-YL})ETHOXY]-BENZYL-7-HYDROXYCOUMARIN]
IC50 (GM-CSF; human bone co-culture system of Example 12, read-out: IC50 with respect to GM-CSF): 38 nM | increase in uterine weight ([2]; not statistically different from vehicle (PEG-400)): ~30% | IC50 (IL-6; read-out: IC50 with respect to IL-6): 10 nM | Ki (human recombinant ER-α; read-out: Solid Phase ER Binding Ki (nM) ER-α, ER-α 15 nM, 30 nM 3H-estradiol, room temperature, average of at least 3 experiments): 1.4 nM

O=C(c1ccc(OCCN2CCCCC2)cc1)c1c(-c2ccc(O)cc2)sc2cc(O)ccc12 [Raloxifene HCl, Raloxifene Hydrochloride]
IC50 (U2OS IL-6 ER-Minus): > 1000 nM | increase in uterine weight ([1]; female, rat, in vivo, sc, 28 day): ~70% | increase in uterine weight ([2]; 1mg/kg dose): up to 50%

CCC(=C(c1ccc(O)cc1)c1ccc(OCCN(C)C)cc1)c1ccccc1 [4-Hydroxy-Tamoxifen]
IC50 (U2OS IL-6 ER-Minus): > 1000 nM

Source: EP1246814B1, “COMPOUNDS AND METHODS FOR MODULATION OF ESTROGEN RECEPTORS” (SIGNAL PHARMACEUTICALS, INC., priority 1999, dated 2001)
